Legend:
Format in all cases: cell-based
CFTR = target: T1, CFTR (Homo sapiens, UniProt P13569); assay: short-circuit current (Ussing chamber), forskolin-activated; complete block at […]
T1 construct: CFTR-expressing FRT cells

hERG channel = target: T2, hERG channel (Homo sapiens, UniProt Q12809); assay: automated patch clamp (PatchLiner), hERG tail current
T2 construct: gene KCNH2; hERG-overexpressing HEK cells

[1] = target: T3, Anoctamin 1 (ANO1, TMEM16A) (Homo sapiens, UniProt Q5XXA6); assay: YFP iodide-influx quenching assay and short-circuit current (Ussing chamber)
T3 construct: endogenous ANO1 in PC9-YFP cells; ANO1-expressing FRT cells
T3 sequence (Q5XXA6 1-986): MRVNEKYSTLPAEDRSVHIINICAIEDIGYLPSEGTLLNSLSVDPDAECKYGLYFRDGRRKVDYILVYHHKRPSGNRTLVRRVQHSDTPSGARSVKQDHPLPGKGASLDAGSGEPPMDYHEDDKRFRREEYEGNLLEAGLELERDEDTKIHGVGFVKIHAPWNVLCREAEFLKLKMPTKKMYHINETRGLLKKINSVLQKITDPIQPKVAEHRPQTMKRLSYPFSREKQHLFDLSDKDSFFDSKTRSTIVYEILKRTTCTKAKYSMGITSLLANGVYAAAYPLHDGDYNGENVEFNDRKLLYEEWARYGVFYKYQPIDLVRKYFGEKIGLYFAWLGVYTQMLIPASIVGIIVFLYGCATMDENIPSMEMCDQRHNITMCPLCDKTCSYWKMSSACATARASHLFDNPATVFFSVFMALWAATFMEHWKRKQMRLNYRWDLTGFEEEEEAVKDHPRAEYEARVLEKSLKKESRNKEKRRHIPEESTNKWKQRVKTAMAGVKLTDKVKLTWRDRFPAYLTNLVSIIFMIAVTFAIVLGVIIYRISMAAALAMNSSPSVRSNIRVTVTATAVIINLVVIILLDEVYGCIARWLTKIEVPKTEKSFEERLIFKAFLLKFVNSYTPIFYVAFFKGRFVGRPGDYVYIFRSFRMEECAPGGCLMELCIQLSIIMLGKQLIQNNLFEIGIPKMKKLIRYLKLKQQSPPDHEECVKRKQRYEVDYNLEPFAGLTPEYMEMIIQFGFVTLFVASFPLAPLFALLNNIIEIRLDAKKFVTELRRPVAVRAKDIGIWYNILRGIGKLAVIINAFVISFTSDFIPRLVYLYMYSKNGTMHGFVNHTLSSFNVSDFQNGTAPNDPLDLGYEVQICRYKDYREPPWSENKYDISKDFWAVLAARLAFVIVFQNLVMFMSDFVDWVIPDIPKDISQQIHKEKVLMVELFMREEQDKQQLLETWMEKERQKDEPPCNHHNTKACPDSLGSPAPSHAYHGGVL

T2 sequence (Q12809 whole entry): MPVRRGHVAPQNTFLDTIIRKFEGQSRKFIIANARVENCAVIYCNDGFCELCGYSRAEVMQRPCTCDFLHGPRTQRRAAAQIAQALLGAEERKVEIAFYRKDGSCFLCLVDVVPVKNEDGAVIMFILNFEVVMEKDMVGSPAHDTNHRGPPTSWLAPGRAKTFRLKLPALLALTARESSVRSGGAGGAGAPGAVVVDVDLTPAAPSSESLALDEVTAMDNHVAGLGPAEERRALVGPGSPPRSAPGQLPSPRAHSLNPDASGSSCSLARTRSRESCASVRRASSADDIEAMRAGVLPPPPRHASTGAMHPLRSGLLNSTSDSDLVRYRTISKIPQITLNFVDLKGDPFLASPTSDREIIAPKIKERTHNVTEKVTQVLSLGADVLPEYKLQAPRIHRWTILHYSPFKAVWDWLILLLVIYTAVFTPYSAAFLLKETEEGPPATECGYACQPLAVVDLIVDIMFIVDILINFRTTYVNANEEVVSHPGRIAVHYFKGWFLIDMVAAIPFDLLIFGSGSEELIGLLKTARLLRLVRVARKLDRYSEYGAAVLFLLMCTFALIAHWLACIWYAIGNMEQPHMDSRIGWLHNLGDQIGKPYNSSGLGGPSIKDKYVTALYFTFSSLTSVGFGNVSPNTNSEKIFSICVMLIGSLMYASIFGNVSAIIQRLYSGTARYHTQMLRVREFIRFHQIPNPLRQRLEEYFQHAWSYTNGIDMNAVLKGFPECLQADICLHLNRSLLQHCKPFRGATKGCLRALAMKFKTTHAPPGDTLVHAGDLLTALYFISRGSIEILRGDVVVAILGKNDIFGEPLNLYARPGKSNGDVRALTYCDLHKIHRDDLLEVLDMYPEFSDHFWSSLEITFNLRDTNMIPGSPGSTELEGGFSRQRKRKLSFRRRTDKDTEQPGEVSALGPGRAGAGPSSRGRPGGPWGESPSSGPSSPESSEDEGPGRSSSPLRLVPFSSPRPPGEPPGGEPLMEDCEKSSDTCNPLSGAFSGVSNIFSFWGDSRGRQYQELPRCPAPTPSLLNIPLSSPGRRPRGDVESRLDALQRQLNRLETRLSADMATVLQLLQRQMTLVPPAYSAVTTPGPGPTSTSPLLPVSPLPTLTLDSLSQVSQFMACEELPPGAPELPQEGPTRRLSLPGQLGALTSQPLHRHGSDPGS
T1 sequence (P13569 whole entry): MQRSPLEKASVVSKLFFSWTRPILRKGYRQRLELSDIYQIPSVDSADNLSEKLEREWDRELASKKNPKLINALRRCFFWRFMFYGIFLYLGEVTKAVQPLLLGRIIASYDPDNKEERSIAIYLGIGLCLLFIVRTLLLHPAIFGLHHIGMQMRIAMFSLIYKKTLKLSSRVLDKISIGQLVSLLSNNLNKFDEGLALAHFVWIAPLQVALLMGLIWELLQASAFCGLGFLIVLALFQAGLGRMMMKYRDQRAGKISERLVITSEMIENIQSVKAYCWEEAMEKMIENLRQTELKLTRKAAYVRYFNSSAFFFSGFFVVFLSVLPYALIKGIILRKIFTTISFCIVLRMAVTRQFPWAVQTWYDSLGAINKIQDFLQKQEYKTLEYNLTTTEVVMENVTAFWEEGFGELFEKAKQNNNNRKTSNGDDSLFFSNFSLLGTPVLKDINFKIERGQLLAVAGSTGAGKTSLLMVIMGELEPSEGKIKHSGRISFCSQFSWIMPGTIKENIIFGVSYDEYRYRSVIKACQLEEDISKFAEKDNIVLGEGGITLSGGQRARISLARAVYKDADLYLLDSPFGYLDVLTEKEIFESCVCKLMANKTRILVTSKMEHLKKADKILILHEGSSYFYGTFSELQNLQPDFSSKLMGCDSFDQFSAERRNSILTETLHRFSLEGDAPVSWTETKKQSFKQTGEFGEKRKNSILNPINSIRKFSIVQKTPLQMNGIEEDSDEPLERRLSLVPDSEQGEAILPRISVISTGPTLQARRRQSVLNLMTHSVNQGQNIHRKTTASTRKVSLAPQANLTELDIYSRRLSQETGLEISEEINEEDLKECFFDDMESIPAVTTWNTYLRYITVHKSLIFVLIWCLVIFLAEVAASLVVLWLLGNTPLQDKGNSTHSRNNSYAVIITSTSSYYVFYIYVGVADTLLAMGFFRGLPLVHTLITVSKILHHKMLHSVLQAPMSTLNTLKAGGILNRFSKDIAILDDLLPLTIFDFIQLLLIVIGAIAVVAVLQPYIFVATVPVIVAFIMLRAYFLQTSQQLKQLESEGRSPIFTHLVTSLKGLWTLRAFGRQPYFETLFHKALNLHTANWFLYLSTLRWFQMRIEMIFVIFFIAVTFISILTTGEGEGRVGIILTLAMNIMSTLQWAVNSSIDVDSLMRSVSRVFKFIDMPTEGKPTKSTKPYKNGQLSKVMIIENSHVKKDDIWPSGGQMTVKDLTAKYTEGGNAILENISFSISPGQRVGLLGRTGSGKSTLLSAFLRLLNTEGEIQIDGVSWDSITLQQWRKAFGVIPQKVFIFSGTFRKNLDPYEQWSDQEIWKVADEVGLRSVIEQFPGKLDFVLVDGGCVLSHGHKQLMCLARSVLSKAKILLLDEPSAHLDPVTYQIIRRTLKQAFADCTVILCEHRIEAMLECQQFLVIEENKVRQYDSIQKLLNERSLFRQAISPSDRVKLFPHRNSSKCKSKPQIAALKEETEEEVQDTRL

| short-circuit current (Ussing chamber), forskolin-activated; complete block at 1 (CFTR) [µM] | Structure (SMILES) | IC50 (hERG channel) [µM] | YFP iodide-influx quenching assay and short-circuit current (Ussing chamber) [1] |
| --- | --- | --- | --- |
| 10 | O=C(O)c1ccc(/C=C2\SC(=S)N(c3cccc(C(F)(F)F)c3)C2=O)cc1 [CFTRinh-172] |  |  |
|  | COc1ccc(-c2oc3cc(OC)c(OC)c(O)c3c(=O)c2OC)cc1O [vitexicarpin, 3′,5-dihydroxy-3,4′,6,7-tetramethoxyflavone] | 35.4 | vitexicarpin inhibited ANO1 activation in a dose-dependent manner (Figure 2A) |
